Assay [1] is described as follows: Quenching of the ABTS radical cation. As for the experimental part: The iron chelators were tested for their ability to quench the radical cation formed from 2,2′-azinobis(3-ethylbenzothiazoline-6-sulfonic acid) (ABTS) by the method of Re et al. in Free Radic. Biol. Med. 26, 1231-1237 (1999). Briefly, a stock solution of ABTS radical cation was generated by mixing ABTS (10 mM, 2.10 mL) with K2S2O8 (8.17 mM, 0.90 mL) in H2O and […] deep blue-green ABTS radical cation was diluted in sufficient sodium phosphate (10 mM, pH 7.4) to give an A734 of about 0.900. Test compounds were added to a final concentration ranging from 1.25 to 15 μM, and the decrease in A734 was read after 1, 2, 4 and 6 min. The reaction was largely complete by 1 min, but the data presented are based on a 6-min reaction time.
In this assay, a fairly stable radical cation, ABTS^+, was examined, and Trolox, an analog of vitamin E, was used as a positive control. Briefly, the procedure involved generating the blue-green chromophore by the reaction of ABTS with K2S2O8. The radical has absorption maxima at λ=415, 645, 734, and 815 nm. The change in absorbance at 734 nm was noted 6 min after addition of the chelator of interest at various concentrations, and the slope of the ΔA734 vs. ligand concentration line was calculated.
The iron chelators were tested for their ability to quench the radical cation formed from 2,2′-azinobis(3-ethylbenzothiazoline-6-sulfonic acid) (ABTS) by a published method (Re, R., et al., Free Radical Biol. Med. 26:1231-1237 (1999). Briefly, a stock solution of ABTS radical cation was generated by mixing ABTS (10 mM, 2.10 mL) with K2S2O8 (8.17 mM, 0.90 mL) in H2O and allowing the solution to sit in the dark at room temperature for 18 hours. This stock solution of deep blue-green ABTS radical cation was diluted in sufficient sodium phosphate (10 mM, pH 7.4) to give an A734 of about 0.900. Test compounds were added to a final concentration ranging from 1.25 to 15 μM, and the decrease in A734 was read after 1, 2, 4 and 6 min. The reaction was largely complete by 1 min, but the data presented are based on a 6-min. reaction time.
This radical cation decolorization assay utilizes the pre-formed radical monocation of 2,2′-azinobis(3-ethylbenzothiazoline-6-sulfonic acid) (ABTS) and has been used to evaluate the antioxidant capacity of a large number of compounds and mixtures. Briefly, the change in absorbance of the blue-green chromophore was recorded after the addition of the chelator of interest at each of the different concentrations, and the slope of the ΔA734 vs. ligand concentration line was calculated. The positive control for this reaction was Trolox, an analogue of vitamin E. The decrease in A734 as a function of ligand concentration is the comparitor among the five compounds evaluated. Trolox, L1, DFO, (S)-4′-(HO)-DADMDFT and BDU (Table 3). All four of the iron chelators performed better than Trolox; DFO≈BDU>(S)-4′-(HO)-DADMDFT>L1>Trolox. Thus, all of these ligands could be expected to serve as excellent radical scavengers.

A short description of assay [2]: Prevention of iron-mediated oxidation of ascorbate (ascorbate-mediated reduction of Fe(III)). To be noted: ascorbate 100 μM, FeCl3 30 μM, pH 7.4, ligand/Fe ratios 0-3, 40 min. As for the experimental part: (§1) The iron chelators were tested for their ability to diminish the iron-mediated oxidation of ascorbate by the method of Dean and Nicholson (Free Radical Res. 20, 83-101 (1994)). Briefly, a solution of freshly prepared ascorbate (100 μM) in sodium phosphate buffer (5 mM, pH 7.4) was incubated in the presence of FeCl3 (30 μM) and chelator (ligand/Fe ratios varied from 0-3) for 40 min. The A265 was read at 10 and 40 min; the ΔA265 in the presence of ligand was compared to that in its absence.
The role of chelators in either inhibition or promotion of the Fenton reaction is related to their capacity to prevent Fe(III) from being reduced to Fe(II). Fe(II) is required for the reduction of H2O2 to HO. and HO^−. The assay involves spectrophotometrically monitoring the disappearance of ascorbate at pH 7.4 in the presence of FeCl3 and chelator at several ligand/Fe ratios. Under these conditions, ascorbate is oxidized to an L-ascorbyl radical anion. This anion then disproportionates to dehydroascorbic acid and ascorbate.
as §1, with “chelators nitrilotriacetic acid (NTA), 1,2-dimethyl-3-hydroxypyridin-4-one (L1), desferrioxamine B (DFO), (S)-4′-(HO)-DADMDFT, and (S,S)-1,11-Bis[5-(4-carboxyl-4,5-dihydro-1,3-thiazol-2-yl)-2,4-dihydroxyphenyl]-4,8-dioxaundecane (BDU)” for “chelators”, “Nicholson, Free” for “Nicholson (Free”, “20:” for “20,”, “(1994).” for “(1994)).”
The measurement examines the disappearance of ascorbate. It is known that DFO, a hydroxamate chelator that forms a 1:1 complex with Fe(III) at a formation constant of approximately 10^31 M^−1, prevents ascorbate-mediated reduction of Fe(III); it serves as a positive control in the present study. Both NTA and L1 promote ascorbate-mediated reduction of Fe(III) and serve as negative controls.

Assay [3] deals with iron. The experiment in a line: Iron clearance in the non iron-overloaded, bile duct-cannulated rodent model. It is filed as in vivo, Sprague-Dawley rats. The method, then:
Briefly, male Sprague-Dawley rats averaging 450 g were housed in Nalgene plastic metabolic cages during the experimental period and given free access to water. The animals were anesthetized using sodium pentobarbital (55 mg/kg) administered intraperitoneally. The bile duct was cannulated using 22-gauge polyethylene tubing. The cannula was inserted into the duct about 1 cm from the duodenum and tied snugly in place. After threading through the shoulder, the cannula was passed from the rat to the swivel inside a metal torque-transmitting tether, which was attached to a rodent jacket around the animal's chest. The cannula was directed from the rat to a Gilson microfraction collector (Middleton, Wis.) by a fluid swivel mounted above the metabolic cage. Bile samples were collected at 3 hour intervals for 24 hours. The urine sample was taken at 24 hours and handling was as previously described. (Bergeron, R. J., et al., J. Med. Chem. 34:2072-2078 (1991).
(§2) The iron chelators were solubilized in 40% Cremophor RH-40/water (v/v) and given orally and subcutaneously to the rats at the doses shown in Table 4. In the primates, DFO was dissolved in sterile H2O at a concentration of 50 or 100 mg/mL and given orally or subcutaneously at a volume of 1 ml/kg. The desferrithiocin analogues were solubilized in 40% Cremophor RH-40/water (v/v) and given orally to the monkeys at the doses shown in Table 4. However, the desferrithiocin analogues were administered subcutaneously as either a suspension in distilled H2O or as their sodium salts in solution as indicated in Table 4.
(§3) Iron clearance studies were carried out both in the non iron-overloaded, bile duct-cannulated rodent model and in the iron-overloaded Cebus apella monkey, and the results are reported as iron clearing efficiency (Table 4). This number is generated by dividing the net iron clearance [total iron excretion (bile or stool plus urine) minus background] by the theoretical iron clearance and multiplying by 100. The theoretical iron clearance is based on a 2:1 metal complex stoichiometry for 4′-(HO)-DADMDFT, a 1:1 stoichiometry for DFO, and a 1:1 stoichiometry for BDU, as shown in the Job's plot (FIG. 5). Data are presented as the mean±the standard error of the mean. The drugs were administered both orally (po) and subcutaneously (sc) to the rodents and primates; the positive control was DFO.

In assay [4] the test system is iron. The experiment in a line: Iron clearance in the iron-overloaded Cebus apella monkey. The format is in vivo. To be noted: as sodium salt. As for the experimental part: The monkeys were iron overloaded with intravenous iron dextran to provide about 500 mg iron per kg body weight. The serum transferrin iron saturation rose to between 70 and 80%. At least twenty half-lives, sixty days, elapsed before any of the animals were used in experiments evaluating iron-chelating agents.
Fecal and urine samples were collected at 24 hour intervals and processed. Briefly, the collections began 4 days prior to the administration of the test drug and continued for an additional 5 days after the drug was given. Iron concentrations were determined by flame atomic absorption spectroscopy.
as §2, §3

Where [5] appears, read: Table 1, A734, six-minute reaction, pH 7.4, 1.25 to 15 μM.

Molecules are shown by their SMILES. Where “and” joins values, the source holds several entries; their conditions need not be identical. Equal values may be shown once. Entries after “also recorded” stand apart in the source; their conditions may differ.

In the case of `O=C(O)C1CSC(c2ccccc2O)=N1` (stereo not drawn) [DADMDFT, desazadesmethyldesferrithiocin], in assay [1] (setting [5]), the “Slope × 10^3 OD units/μM (ABTS radical cation quenching)” value (“Slope × 10^3 OD units/μM” for short) is given as −28.1 × 10^3 OD units/μM.

Regarding `O=C(O)CN(CC(=O)O)CC(=O)O` [NTA, nitrilotriacetic acid], the “effect on ascorbate-mediated reduction of Fe(III) (in words)” value (“effect on ascorbate-mediated reduction” below) in assay [2] is on record as “profoundly stimulatory effect; also recorded: promoted ascorbate-mediated reduction of Fe(III)”; in assay [2] (listed as nitrilotriacetic acid), “increased the rate of iron(III) reduction”.

Turning to `Nc1ccc(O)c(C(=O)O)c1` [Compound 5-ASA, 5-aminosalicylic acid], the “effect on ascorbate-mediated reduction” value in assay [2] is “promoted ascorbate-mediated reduction of Fe(III)”; in assay [2] (listed as 5-aminosalicylic acid), “increased the rate of iron(III) reduction”. For the same compound, in assay [1] (setting [5]), the “Slope × 10^3 OD units/μM” value is −34.4 × 10^3 OD units/μM.

Regarding `COCCOCCOCCN(O)C(C)=O` [decyl hydroxamate, N-hydroxy,N-(3,6,9-trioxadecyl)acetamide], the “effect on ascorbate-mediated reduction” value in assay [2] is listed as “increased the rate of iron(III) reduction”.

On to `C[C@]1(C(=O)O)CSC(c2ccccc2O)=N1` [DADFT], for which the “Slope × 10^3 OD units/μM” value in assay [1] (setting [5]) is on record as −25.1 × 10^3 OD units/μM.

For the compound `O=C(O)[C@H]1CSC(c2cc(CCCOCCCOCCCc3cc(C4=N[C@@H](C(=O)O)CS4)c(O)cc3O)c(O)cc2O)=N1` [BDU, (S,S)-1,11-Bis[5-(4-carboxyl-4,5-dihydro-1,3-thiazol-2-yl)-2,4-dihydroxyphenyl]-4,8-dioxaundecane], in assay [2], the “effect on ascorbate-mediated reduction” value was “significant protection”. In addition, in assay [1] (Table 3, A734, 6-min reaction, values marked b are the inventors' unpublished results), the “Slope × 10^3 OD units/μM” value was −136 × 10^3 OD units/μM. For the same compound, in the assay with iron [3] (150 μmol/kg po), the “% bile (of iron excreted), rodents” value worked out at 80%; the “% urine (of iron excreted), rodents” value is on record as 20%; the “efficiency in rodents (%)” value was determined as 0.9±0.4%. In the assay with iron [3] (150 μmol/kg sc), the “% bile (of iron excreted), rodents” value amounted to 95%; the “% urine (of iron excreted), rodents” value came out at 5%; the “efficiency in rodents (%)” value was determined as 6.5±2.0%. Further, in the assay on iron [4] (75 μmol/kg sc), the “% stool (of iron excreted), monkeys” value turned out to be 98%; the “% urine (of iron excreted), monkeys” value is given as 2%; the “efficiency in monkeys (%)” value is 3.2±1.8% and 3.2 ± 1.8^g %. For the same compound, in the assay with iron [4] (150 μmol/kg sc, n = 3), the “% urine (of iron excreted), monkeys” value is given as 0%; the “efficiency in monkeys (%)” value is 2.1±1.4% and 2.1 ± 1.4^g,h %.

These data come from patent publication US20050234113A1, “Antioxidant and radical scavenging activity of synthetic analogs of desferrithiocin” (University of Florida Research Foundation, Inc., priority 2002, published 2005).
